Assay results from patent publication US20250360091A1, “COMBINATION OF SGLT2 INHIBITOR AND MENTHOL AND USE THEREOF IN TREATMENT OF HEART DISEASE” (EAST CHINA UNIVERSITY OF SCIENCE AND TECHNOLOGY, priority 2023, published 2025).

Assays:
[1] = system: intracellular calcium concentration; assay: Intracellular calcium ion concentration with calcium probe Fluo4-AM (Example 5); type: cell-based; details: cariporide 100 μM, empagliflozin 50 μM, menthol 200 μM, combination 50 μM + 200 μM
Text: Intracellular calcium overload is an important factor in the transition of myocardial cells from reversible to irreversible damage. Intracellular calcium overload can be seen in a variety of cardiac pathological states, such as cardiac remodeling, myocardial ischemia-reperfusion injury, viral myocarditis, dilated cardiomyopathy, arrhythmias, and congestive heart failure. […] Empagliflozin can act on the sodium-hydrogen exchanger 1 (NHE1) on the myocardial cell membrane. When myocardial ischemia occurs, myocardial cell energy metabolism is impaired, and myocardial cells switch from fatty acid metabolism to sugar-free glycolysis, producing a large amount of lactic acid, which reduces the intracellular pH. As a regulatory protein for cell pH homeostasis, NHE1 can transport H^+ out of the cell by exchanging extracellular sodium ions, resulting in an increase in the intracellular sodium ion concentration. […] When mitochondrial function is impaired, the release of ROS increases, and ROS can further stimulate L-type calcium channels, promoting Ca^2+ influx, creating a vicious cycle. Empagliflozin inhibits the activity of NHE1 and can indirectly reduce the intracellular calcium ion concentration. Menthol, as an L-type calcium channel blocker, can synergistically reduce the intracellular calcium ion concentration with empagliflozin, playing a synergistic role. In order to verify this synergistic mechanism, the intracellular calcium ion concentration was detected using the calcium ion probe Fluo4-AM.
The experiment was divided into 5 groups, including control group (no drug group), cariporide group (positive control group, 100 μM), EMPA-50 (empagliflozin, 50 μM), M-200 (menthol, 200 μM), and E50+M200 (combination of 50 μM empagliflozin and 200 μM menthol).
• (1) Take an appropriate amount of Fluo4-AM stock solution (2 mM, BeyoTime, S1060) and dilute it to a 10 μM working solution with HBSS; • (2) For the cells to be tested (covering the bottom of the dish), remove the culture medium and wash with HBSS three times; • (3) Add 25 μL of Fluo4-AM working solution to each well, and then add 25 μL of compound solution to each well; • (4) Incubate at 37° C. for 30 min for fluorescent probe loading; • (5) Wash three times with HBSS, and add 100 μL of HBSS containing 10 mM CaCl2) to each well. Detect quantitatively the fluorescence of Fluo4-AM using a multifunctional fluorescence microplate reader (excitation wavelength 488 nm, emission wavelength 520 nm) to determine the changes in intracellular calcium ions.
Since empagliflozin indirectly affects intracellular calcium concentration by inhibiting NHE1, the intracellular environment was made acidic by using ammonium chloride solution to simulate the environment during myocardial ischemia, and the effect of the administered composition on intracellular calcium ions was tested. The NHE1 inhibitor cariporide was used as a positive control. The above step (3) was changed to add 25 μL of Fluo4-AM working solution to each well, mix the test compound with 80 mM NH4Cl solution at a 1:1 ratio, and then add 25 μL mixed solution of the compound and NH4Cl to each well (the final concentration of NH4Cl was 20 mM), and the remaining steps were the same as above.

[2] = system: Rat cardiomyocytes (H9c2); assay: GD-induced myocardial cell damage model, CCK-8, SGLT2 inhibitors with L-menthol (Example 9); type: cell-based; details: single drugs: SGLT2 inhibitor 50 μM or menthol 200 μM; GD 36-48 h; untreated group 54.7%
Description: In this example, the protective effect of the drug composition on myocardial cells was evaluated by using a GD-induced myocardial cell damage model. […] Rat cardiomyocytes (H9c2) were purchased from the Chinese Academy of Sciences Stem Cell Bank. The cardiomyocytes were cultured in high-glucose DMEM medium (Gibco, 11995-065) containing 10% fetal bovine serum and 1% penicillin/streptomycin, and incubated in a 37° C., 5% CO2 incubator. […] When the cells reached confluence, the DMEM medium was removed, and the cells were washed once with PBS. […] The synergistic coefficient was calculated using the Zero interaction dose model, with the formula: CI=(EAB−EA*EB)/(EA+EB−EA*EB), wherein CI is the synergistic effect index, EAB is the efficacy index of the combination of drugs, and EA and EB are the efficacy indices of the individual drugs, respectively.

Compound | effect on intracellular calcium concentration (Fluo4-AM fluorescence) ([1]; NH4Cl present (20 mM, acidic intracellular conditions)) | effect on intracellular calcium concentration (Fluo4-AM fluorescence) ([1]; absence of NH4Cl) | cell survival rate [2] [%]
CC(C)c1ccc(C(=O)NC(=N)N)cc1S(C)(=O)=O [cariporide] | significantly reduce intracellular calcium concentration | almost no effect | –
CCOc1ccc(Cc2cc([C@@H]3O[C@H](CO)[C@@H](O)[C@H](O)[C@H]3O)ccc2Cl)cc1 [dapagliflozin] | – | – | 58.9
CCOc1ccc(Cc2cc([C@]34OC[C@](CO)(O3)[C@@H](O)[C@H](O)[C@H]4O)ccc2Cl)cc1 [ertugliflozin] | – | – | 58.6
canagliflozin | – | – | 60.2
